This is an account of results in US20100034778A1, “STEM CELLS” (DUKE UNIVERSITY, priority 2005, published 2010).

In assay [1] the test system is BM CD34^+CD38^−lin^− cells. In words: Culture of human BM CD34+CD38-lin- cells with TSF plus retinoid/rexinoid ligand (total cell expansion, immunophenotype, CFC content, morphology). The assay is classed as cell-based. The protocol:
(§1) Isolation of Human BM and CB CD34^+CD38^−lin− cells
(§2) Whole BM and CB units were obtained from the Duke University Stem Cell Laboratory within 48 hours of collection. Volume reduction of CB units was accomplished by 10 minute incubation at room temperature with 1% Hetastarch (Abbott Laboratories, North Chicago, Ill.), followed by centrifugation at 700 rpm for 10 minutes to facilitate component separation. The buffy coat was collected and washed twice with Dulbecco's phosphate buffered saline (PBS; Invitrogen, Carlsbad, Calif.) containing 10% heat-inactivated fetal bovine serum (FBS; Hyclone, Logan, Utah), 100 U/ml penicillin, and […] streptomycin (1% pcn/strp; Invitrogen). Cell pellets were resuspended in PBS with 10% FBS and 1% pcn/strp and overlaid onto Lymphoprep (Axis-Shield, Olso, Norway) and centrifuged at 1500 rpm for 30 minutes to isolate the mononuclear cell (MNC) fraction. MNCs were collected and washed twice before proceeding to lineage depletion.
(§3) Briefly, CB or BM MNCs were resuspended at 5−8×10^7 cells/ml in PBS with 10% FBS and 1% pcn/strp and incubated with 100 μl/ml antibody cocktail for 30 minutes followed by incubation with 60 μl/ml magnetic colloid for 30 minutes. Cells were then magnetically depleted on a pump fed negative selection column (Stem Cell Technologies) using the manufacturer's recommended procedure. Lin-cells were washed twice, quantified by hemacytometer count and cryopreserved in 90% FBS and 10% dimethylsulfoxide (DMSO; Sigma-Aldrich, St. Louis, Mo.) or utilized directly for further experiments.
(§4) Lin^− CB or BM cells were thawed, washed once in Iscove's Modified Dulbecco's Medium (IMDM; Invitrogen) containing 10% FBS and 1% pcn/strp, counted, and resuspended at 5−10×10^7/ml. Immunofluorescent staining was conducted using anti-human CD34-fluorescein isothiocyanate (FITC) and anti-human CD38-phycoerythrin (PE) monoclonal antibodies (Becton Dickinson, San Jose, Calif.), for 30 minutes on ice. Stained cells were washed twice and resuspended at 1×10^7 cells/ml in IMDM with 10% FBS and 1% pcn/strp. Analysis and sterile cell sorting was conducted using a FACSvantage flow cytometer (Becton Dickinson) to isolate CD34^+CD38^− and CD34^+CD38^+ subsets. The CD34^+CD38^− sort gate was set to collect only those events falling in the lowest 5% of PE fluorescence within the total CD34^+ population, to ensure acquisition of highly purified CD34^+CD38^− cells.
(§5) Analysis of In Vitro Hematopoietic Activity of Human CD34^+CD38^−lin^− Cells Following Culture with LGD1506
(§6) Primary human BM and CB CD34^+CD38^−lin cells were placed in culture with 20 ng/mL thrombopoietin, 100 ng/mL stem cell factor (SCF), and flt-3 ligand (TSF), a cytokine combination previously found to induce human stem and progenitor cell proliferation and differentiation in vitro (Chute et al, Blood 105:576-583 (2005), Chute et al, Stem ells 22:202-215 (2004)).
In order to assess the hematopoietic effects of retinoid agonists on purified human HSCs, BM and CB CD34^+CD38^−lin^− cells were placed in culture with TSP with and without 1 μM all-trans retinoic acid (ATRA), an agonist of RAR. Total cell expansion, immunophenotype, colony forming cell (CFC) content and morphologic analysis was performed on ATRA-treated progeny and compared with both day 0 CD34^+CD38^−lin^− populations and the progeny of TSF alone to assess the impact of retinoid agonism on the differentiation of human HSCs. This analysis was extended further by cultivating BM and CB CD34^+CD38^−lin^− cells with TSF coupled with ligands with specific affinity for either RAR or RXR (provided courtesy of Ligand Pharmaceuticals, Inc., San Diego, Calif.). The hematopoietic activities of LGD0815, an RARA agonist, LGD0268, an RXR agonist, and LGD1506, an RXR selective modulator, in combination with TSF, were evaluated via measurement of total cell expansion, immunophenotype analysis, CFC content and morphologic analysis of cultured progeny versus day 0 (input) BM or CB CD34^+CD38^−lin^− cells.

Assay [2] concerns CB CD34^+CD38^−lin^− cells. The experiment in a line: Culture of human CB CD34+CD38-lin- cells with TSF plus retinoid/rexinoid ligand (immunophenotype, CFC content). The assay is classed as cell-based. The protocol:
as §1, §2, §3, §4, §5, §6
In order to assess the hematopoietic effects of retinoid agonists on purified human HSCs, BM and CB CD34^+CD38^−lin^− cells were placed in culture with TSP with and without 1 μM all-trans retinoic acid (ATRA), an agonist of RAR. […] The hematopoietic activities of LGD0815, an RARA agonist, LGD0268, an RXR agonist, and LGD1506, an RXR selective modulator, in combination with TSF, were evaluated via measurement of total cell expansion, immunophenotype analysis, CFC content and morphologic analysis of cultured progeny versus day 0 (input) BM or CB CD34^+CD38^−lin^− cells.

The next assay has as its system human BM SRCs. The experiment in a line: In vivo long-term repopulating assay in NOD/SCID mice (SRC assay) of cultured progeny. The protocol: In Vivo Long-Term Repopulating Assays in NOD/SCID Mice
NOD/SCID mice (Schulz et al, J. Immunol. 154:180-191 (1995)) were transplanted with either day 0 FACS-sorted BM or CB CD34^+CD38^− lin^− HSC-enriched cells or the progeny of CD34^+CD38^−lin− cells cultured with TSF alone or TSF supplemented with 1 μM LGD506, an RXR-specific ligand. Cells were transplanted via tail vein injection after irradiating NOD/SCID mice with 300 cGy using an X-ray irradiator as previously described (Chute et al, Blood 100:4433-4439 (2002), Chute et al, Blood 105:576-583 (2005)). Day 0 CD34^+CD38^−lin− HSCs and their progeny were co-transplanted with 2×10^4 […] accessory cells to facilitate engraftment as previously described (Bonnet et al, Bone Marrow Transpl. 23:203-209 (1999), Bhatia et al, Proc. Natl. Acad. Sci. USA 94:5320-5325 (1997)).
All mice in each group were sacrificed at week 8 and marrow samples were obtained by flushing their femurs with IMDM at 4° C. Red cells were lysed using red cell lysis buffer (Sigma-Aldrich) and flow cytometric analysis of human hematopoietic engraftment was performed as previously described using commercially available mAbs against human leukocyte differentiation antigens to identify engrafted human leukocytes and discriminate their hematopoietic lineages (Chute et al, Blood 100:4433-4439 (2002), Chute et al, Blood 105:576-583 (2005), Trischmann et al, J. Hematother. 2:305-313 (1993)).
Statistical Analysis and SRC Frequency Measurements
Comparisons of data from in vitro experiments were made using the Student's t test. For purposes of the limiting dilution analysis, a transplanted mouse was scored as positively engrafted if ≧0.1% of the marrow cells expressed human-CD45 via high resolution FACS analysis. This criteria is consistent with previously published criteria for human cell repopulation in NOD/SCID mice (Chute et al, Blood 100:4433-4439 (2002), Dorrell et al, Blood 95:102-110 (2000)). SRC frequency in each cell source was calculated using the maximum likelihood estimator as described previously by Taswell (J. Immunol. 126:1614-1619 (1981), Wang et al, Blood 89:3919-3924 (1997), Ueda et al, J. Clin. Invest. 105:1013-1021 (2000)). Confidence intervals for the frequencies were calculated using the profile likelihood method, and the likelihood ratio test was used to confirm the fit of the model.

The subject of the next assay is HOXB4. The experiment in a line: Quantitative real-time PCR of HOXB4 expression in cultured CB CD34+CD38-lin- cells. The assay is classed as cell-based, human. An excerpt: Real Time PCR Analysis of LGD506-Treated HSCs
Extraction of total RNA from Day 0 and Day 7 CB CD34^+ populations was done using a RNeasy Mini spin column (Qiagen, Valencia, Calif.) according to the manufacturer's recommended protocol. […] Briefly, total RNA was isolated from CD34^+CD38^−lin^− cells according to the manufacturer's instructions for the RNaqueous®—Micro (Ambion) and reversed-transcribed to cDNA using iScript™ cDNA synthesis Kit (Biorad, Hercules, Calif.). cDNA concentrations were measured with a fluorometer (Turner Designs, Sunnyvale, Calif.) using RiboGreen reagent (Invitrogen). PCR amplification reactions were performed in 13 μl and contained equal amounts of cDNAs, 6.5 μL of iQ SYBR green supermix (Bio-Rad), 0.2 μM of each forward and reverse gene-specific primers for genes of interest and the normalization gene 36B4. PCR was performed on an iCycler (Bio-Rad) according to the following cycling conditions: an initial cycle of 15 min at 95° C.; 45 cycles of 45 sec at 95° C., 15 sec at 55° C., and 15 sec at 72° C.; followed by a melt-curve analysis cycle with steps of 10 sec each at 0.5° C. increments from 60 to 95° C. Amplification rates were visualized and analyzed on ICYCLER IQ optical system software version 3.0 (Bio-Rad). Gene-specific primers were purchased from Integrated DNA Technologies (Coralville, Iowa).

Another assay relates to RXR:LXR heterodimer. As to conditions: unpublished data of M. Leibowitz et al.; cited from earlier work.
The subject of another assay is RXR:RAR heterodimer. Conditions: unpublished data of M. Leibowitz et al.; cited from earlier work.

“And” between values parts separate entries of the source, which are not always exact repeats. Equal entries are not always repeated. “Also recorded” adds a separate entry of the source.

Turning to `CC1=C(/C=C/C(C)=C/C=C/C(C)=C/C(=O)O)C(C)(C)CCC1` [ATRA, all-trans retinoic acid], the “percentage of CD34+CD38- cells at day 7” value in assay [1] (BM cells, TSF+1 μM ligand, day 7) is “caused a decline”. For the same compound, the “differentiation of human HSCs during culture” value in assay [2] (ATRA with TSF, by day 7) was “enhanced the differentiation; also recorded: induced pronounced differentiation and myelbid maturation”. Besides, the “number of CFCs” value in assay [2] (CB cells, ATRA+TSF versus TSF alone) was “signficantly less CFCs; also recorded: decreased”. In addition, the “percentage of CD34+ cells” value in assay [2] (CB cells, TSF+1 μM ATRA, 7 days, versus TSF alone) was “marked loss; also recorded: declined relative to TSF alone”. The “CD34+CD38- cells remaining in culture” value in assay [2] (CB cells, TSF+1 μM ATRA, day 7) is given as “marked loss; also recorded: no CD34^+CD38^− cells remained”.

As to `C/C(=C/C=C/C(C)=C/C(=O)O)c1cc(C(C)(C)C)cc(C(C)(C)C)c1OCC(F)F` [LGD1506], in assay [1] (BM cells, LGD1506+TSF), the “increase in BM CD34+CD38- cell numbers compared to day 0 (input)” value was 4 fold. For the same compound, the total cell expansion in assay [1] (BM cells, LGD1506+TSF, day 7) is recorded as 13 fold. Further, the “reduction in CFC production during culture compared to TSF alone” value in assay [1] (LGD1506+TSF culture (FIG. 2D)) was determined as 50%. In addition, the “morphologic examination of cultured progeny” value in assay [1] (LGD1506+TSF cultures, data not shown) is “predominance of immature blasts”. Further, the “differentiation of human HSCs during culture” value in assay [1] (LGD1506 with TSF) is “inhibited HSC differentiation”. The “CFCs less compared to TSF-cultured cells” value in assay [1] (progeny of LGD1506+TSF cultures) is reported as 2 fold. Besides, the “maintenance of CD34+CD38- cells in CB cultures” value in assay [2] (CB cells, TSF+LGD1506) was “supported the maintenance”. Besides, the “huCD45+ cell repopulation of transplanted mice” value in the assay on human BM SRCs (cell dose 1−2.5×10^3, progeny of TSF+LGD1506 culture) is listed as “no huCD45+ cell repopulation was detected”. Moreover, the “multilineage differentiation in engrafted mice” value in the assay on human BM SRCs (mice engrafted with LGD1506-treated cells) is “normal multilineage differentiation was evident”. In the assay on human BM SRCs (progeny of 5×10^3 BM CD34+CD38-lin- cells, LGD1506+TSF), the “percent of transplanted mice with human repopulation” value is 50-80% and 80%. Besides, the “mice showing huCD45+ cell repopulation” value in the assay on human BM SRCs (progeny of 5×10^3 BM CD34+CD38-lin- cells, LGD1506+TSF, week 8) is 4 of 5. Also, the “mean huCD45+ cell repopulation” value in the assay on human BM SRCs (progeny of 5×10^3 BM cells, LGD1506+TSF) is reported as 0.2%. In addition, the “HOXB4 expression over time” value in the assay with HOXB4 (LGD1506+TSF versus TSF alone (FIG. 3A)) is given as “prevented the downregulation”. In the assay on HOXB4 (LGD1506 added to TSF), the “HOXB4 expression, percent of input (day 0) levels” value was 80% and 70%. The “effect on RXR:LXR heterodimer” value in the assay with RXR:LXR heterodimer is recorded as “inhibit”. In addition, the “effect on RXR:RAR heterodimer” value with RXR:RAR heterodimer is given as “neutral or inhibitory effects”.
